This is an account of results in patent publication US11707456B2, “Processes for preparing arimoclomol citrate and intermediates thereof” (KemPharm Denmark A/S, priority 2020, dated 2023).

A short description of data set [1]: Stability of ORZY-04 on drying at 45° C. in vacuum. It counts as physicochemical. The following applies: after 168 h of drying at 45° C. in vacuum. On the procedure:
A citric acid solution was prepared by charging citric acid (15.01 g, […]) and MeOH (100 mL) in a separate container and stirring for 5 min. at 20° C. The citric acid solution was then charged to the container containing the reaction solution, and the mixture was cooled to 0° C. and stirred for at least 12 h at 0° C. ORZY-04 was then isolated by filtration of the obtained suspension, and washed with MeOH (40 mL). Finally, the solids were dried at 45° C. in vacuum. Results

Details of data set [2]: species or system human. The conditions noted are these: in vivo, po. The source says: The stability permits that the permeability of arimoclomol is high based on urinary recovery in human mass balance trial.

`[O-][n+]1cccc(/C(Cl)=N/OC[C@H](O)CN2CCCCC2)c1` [ORZY-04]: in data set [1], the stability on drying result is “stable”.
Take `[O-][n+]1cccc(C(Cl)=NOC[C@H](O)CN2CCCCC2)c1` [arimoclomol, N-{[(2R)-2-hydroxy-3-piperidin-1-ylpropyl]oxy}pyridine-3-carboximidoyl chloride 1-oxide]: the “drug-related material recovered in faeces” value in data set [2] was determined as 12%.
